From patent US20070207144A1, “Ubiquitin/proteasome inhibitors for the treatment of spinal muscular atrophy” (priority 2006, published 2007)

Tests used:
[1] = tested on: fibroblasts isolated from an SMA patient; assay: SMN protein and gem formation in SMA patient fibroblasts; type: cell-based, human; conditions: compared with the control DMSO
Source text: The invention is further related to the appreciation that the assays described herein can be efficiently used as the primary assay for selecting a candidate for the treatment of SMA. Thus, the invention relates to a method for selecting a candidate for the treatment of SM-A comprising (a) contacting the candidate with a fibroblast cell culture derived from an SMA patient under conditions and for a period of time sufficient for SMN protein expression and gem formation; (b) determining the formation of gems of SMN protein; and (c) selecting the candidate. The formation of gems can be determined by establishing the percentage of fibroblasts with gems in the cell culture. In other embodiments, the number of gems or concentration of gems in the culture can be determined.
Cell lines are derived from SMA patients. Such cells are termed “SMA cells” herein. The cells are isolated from a variety of sources and tissues. For example, the cells can be isolated from a blood sample or from a biopsy. The cell can be a stem cell, a fibroblast, a neuronal cell or a lymphoid cell. The cells can be propagated in culture according to cell type and origin of the cells. The requisite growth factors can be provided in the media. For example, the media can be supplemented with fetal calf serum, a cocktail of purified factors, or an individual growth factor. The cells can be propagated without being immortalized. Alternatively, the cells can immortalized using a virus or a plasmid bearing an oncogene, or a transforming viral protein, e.g., papilloma E6 or E7 protein. The source of the fibroblasts for cell culture can be isolated from a patient with SMA or derived from such an isolation. In one embodiment, the cells are a clonal cell culture derived from an SMA patient.
Procedures for isolating and maintaining cells lines are well known in the art and can be found in suitable laboratory manuals. The cells can be grown in sufficient amount to screen an array of test compounds. Alternatively, cells can be used to assess the effectiveness of individual compounds as SMA treatments. […]

proteasome = conditions: Fenteany et al., Science 1995; cited from earlier work
several cell types = conditions: Fenteany et al., PNAS 1994; cited from earlier work

Structure (SMILES) | SMN & Gems in patient fibroblasts (pictures) [1] | proteolytic activity of the proteasome complex (proteasome) | proliferation of several cell types (several cell types)
CC(C)[C@H](O)[C@@]12NC(=O)[C@H](CCCl)[C@]1(C)OC2=O [Antiprotealide, antiprotealide] | induced |  | 
CC(C)C[C@H](NC(=O)[C@H](Cc1ccccc1)NC(=O)c1cnccn1)B(O)O [Velcade, bortezomib] | induced |  | 
CC(=O)N[C@@H](CSC(=O)[C@]1([C@@H](O)C(C)C)NC(=O)[C@H](C)[C@@H]1O)C(=O)O [Lactacystin, lactacystin] | induced | specifically inhibits | capable of inhibiting
